Measured values reported in patent US11629171B2, “Beta-hairpin peptidomimetics” (POLYPHOR AG, priority 2017, dated 2023).
Values after ≈ are worked out from the molar mass of the structure shown. Where a SMILES comes first, the peptide text is derived from it. Bridges are numbered along the chain shown (N, C = ends). Roman numbers before positions name the chains, in order. [ ]: non-standard residue; d: D form. Pen = CC(C)(S)[C@H](N)C(=O)O; Tle = CC(C)(C)[C@H](N)C(=O)O; NMeV = CN[C@H](C(=O)O)C(C)C; dDab = NCC[C@@H](N)C(=O)O; hSer = N[C@@H](CCO)C(=O)O; Dab = NCC[C@H](N)C(=O)O

What was measured:
Assay type in all cases: cell-based
[1] = tested on: human red blood cells (hRBC); test: Hemolysis; details: red cells of human, 1 h, 200
Procedure, shortened: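 Washed fresh hRBC (20% v/v) were incubated with peptides at 200 μg/mL for 1 h at 37° C with shaking at 300 rpm. Supernatant OD540 was read after centrifugation and dilution, blank-corrected, and expressed as percent of the 2% Triton X-100 (100% lysis) control; PBS with 10% water gave 0%.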

[2] = tested on: Escherichia coli ATCC 25922; details: ATCC 25922
Procedure, shortened: (§1)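 CLSI broth microdilution: inoculum ~10^6 CFU/mL in cation-adjusted Mueller-Hinton II broth, with peptide in serial two-fold dilutions plus Polysorbate 80 (0.002% final). MIC (μg/mL) is the lowest concentration without visible growth after 18-20 hours at 35° C.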

[3] = tested on: Pseudomonas aeruginosa ATCC 27853; details: ATCC 27853
Procedure, shortened: as §1

[4] = tested on: Escherichia coli 926415; details: 926415
Procedure, shortened: as §1

[5] = tested on: Acinetobacter baumannii DSM 30008; details: DSM 30008
Procedure, shortened: as §1

[6] = tested on: Klebsiella pneumoniae 968733; details: 968733
Procedure, shortened: as §1

[7] = tested on: Enterobacter cloacae 848840; details: 848840
Procedure, shortened: as §1

[8] = tested on: Klebsiella pneumoniae SSI #3010; details: SSI #3010
Procedure, shortened: as §1

[9] = tested on: Acinetobacter baumannii 872842; details: 872842
Procedure, shortened: as §1

Compound | Hemolysis at 200 μg/mL [1] | MIC [2] | MIC [3] | MIC [4] | MIC [5] | MIC [6] | MIC [7] | MIC [8] | MIC [9]
CC(C)C[C@@H]1NC(=O)[C@@H](CC(C)C)NC(=O)[C@H](CCN)NC(=O)[C@@H](NC(=O)[C@H](CCN)NC(=O)[C@@H](NC(=O)[C@H](CCN)NC(=O)CC[C@@H]2NC(=O)[C@H](CCN)NC(=O)[C@H](Cc3ccc(O)cc3)NC(=O)[C@@H](NC(=O)[C@@H](N)C(C)C)CSSC[C@@H](C(=O)N[C@@H](CO)C(N)=O)NC(=O)[C@H](C(C)(C)C)NC(=O)[C@H](CO)NC(=O)[C@H](Cc3c[nH]c4ccccc34)NC(=O)[C@H]([C@@H](C)O)NC(=O)[C@@H](CCN)NC2=O)[C@@H](C)O)CCNC(=O)[C@H]([C@@H](C)O)NC(=O)[C@H](CCN)NC(=O)[C@H](CCN)NC1=O [Ex. 47] (I: H-VCY[Dab]E[dDab]TWS[Tle]CS-NH2 / II: [Dab]T[Dab][Dab][Dab][dL]L[Dab][Dab]T; disulfide I:2-I:11; amide I:5-II:N; lactam II:4-II:C) | <1% | 0.0625 µg/mL (≈ 0.0261 µM) | 0.125 µg/mL (≈ 0.0521 µM) | 0.25 µg/mL (≈ 0.104 µM) | 0.125 µg/mL (≈ 0.0521 µM) | 1 µg/mL (≈ 0.417 µM) | 4 µg/mL (≈ 1.67 µM) | 0.125 µg/mL (≈ 0.0521 µM) | 0.125 µg/mL (≈ 0.0521 µM)
CC(C)C[C@@H]1NC(=O)[C@@H](CC(C)C)NC(=O)[C@H](CCN)NC(=O)[C@@H](NC(=O)[C@H](CCN)NC(=O)[C@@H](NC(=O)[C@H](CCN)NC(=O)CC[C@@H]2NC(=O)[C@H](CCN)NC(=O)[C@H](Cc3ccc(O)cc3)NC(=O)[C@@H](NC(=O)[C@@H](N)C(C)C)CSSC[C@@H](C(=O)N[C@@H](CO)C(N)=O)NC(=O)[C@H](C(C)C)NC(=O)[C@H](CCO)NC(=O)[C@H](Cc3c[nH]c4ccccc34)NC(=O)[C@H](CCO)NC(=O)[C@@H](CCN)NC2=O)[C@@H](C)O)CCNC(=O)[C@H]([C@@H](C)O)NC(=O)[C@H](CCN)NC(=O)[C@H](CCN)NC1=O [Ex. 48] (I: H-VCY[Dab]E[dDab][hSer]W[hSer]VCS-NH2 / II: [Dab]T[Dab][Dab][Dab][dL]L[Dab][Dab]T; disulfide I:2-I:11; amide I:5-II:N; lactam II:4-II:C) | <1% | 0.25 µg/mL (≈ 0.104 µM) | 0.125 µg/mL (≈ 0.0521 µM) | 1 µg/mL (≈ 0.417 µM) | 0.25 µg/mL (≈ 0.104 µM) | 8 µg/mL (≈ 3.33 µM) | 4 µg/mL (≈ 1.67 µM) | 0.25 µg/mL (≈ 0.104 µM) | 0.5 µg/mL (≈ 0.208 µM)
CC(=O)N[C@H](C(=O)N[C@H]1CSSC[C@@H](C(=O)N[C@@H](CO)C(N)=O)NC(=O)[C@H](C(C)(C)C)NC(=O)[C@H](CCO)NC(=O)[C@H](Cc2c[nH]c3ccccc23)NC(=O)[C@H](CCO)NC(=O)[C@@H](CCN)NC(=O)[C@H](CCC(=O)N[C@@H](CCN)C(=O)N[C@H](C(=O)N[C@@H](CCN)C(=O)N[C@H]2CCNC(=O)[C@H]([C@@H](C)O)NC(=O)[C@H](CCN)NC(=O)[C@H](CCN)NC(=O)[C@H](CC(C)C)NC(=O)[C@@H](CC(C)C)NC(=O)[C@H](CCN)NC2=O)[C@@H](C)O)NC(=O)[C@H](CCN)NC(=O)[C@H](Cc2ccc(O)cc2)NC1=O)C(C)C [Ex. 49] (I: Ac-VCY[Dab]E[dDab][hSer]W[hSer][Tle]CS-NH2 / II: [Dab]T[Dab][Dab][Dab][dL]L[Dab][Dab]T; disulfide I:2-I:11; amide I:5-II:N; lactam II:4-II:C) | <1% | 0.125 µg/mL (≈ 0.0509 µM) | 0.125 µg/mL (≈ 0.0509 µM) | 0.25 µg/mL (≈ 0.102 µM) | 0.0625 µg/mL (≈ 0.0255 µM) | 0.125 µg/mL (≈ 0.0509 µM) | 0.25 µg/mL (≈ 0.102 µM) | 0.125 µg/mL (≈ 0.0509 µM) | 0.25 µg/mL (≈ 0.102 µM)
CN[C@H](C(=O)N[C@H]1CSSC[C@@H](C(=O)N[C@@H](CO)C(N)=O)NC(=O)[C@H](C(C)C)NC(=O)[C@H](CCO)NC(=O)[C@H](Cc2c[nH]c3ccccc23)NC(=O)[C@H](CCO)NC(=O)[C@@H](CCN)NC(=O)[C@H](CCC(=O)N[C@@H](CCN)C(=O)N[C@H](C(=O)N[C@@H](CCN)C(=O)N[C@H]2CCNC(=O)[C@H]([C@@H](C)O)NC(=O)[C@H](CCN)NC(=O)[C@H](CCN)NC(=O)[C@H](CC(C)C)NC(=O)[C@@H](CC(C)C)NC(=O)[C@H](CCN)NC2=O)[C@@H](C)O)NC(=O)[C@H](CCN)NC(=O)[C@H](Cc2ccc(O)cc2)NC1=O)C(C)C [Ex. 50] (I: H-[NMeV]CY[Dab]E[dDab][hSer]W[hSer]VCS-NH2 / II: [Dab]T[Dab][Dab][Dab][dL]L[Dab][Dab]T; disulfide I:2-I:11; amide I:5-II:N; lactam II:4-II:C) | <1% | 0.125 µg/mL (≈ 0.0518 µM) | 0.25 µg/mL (≈ 0.104 µM) | 0.5 µg/mL (≈ 0.207 µM) | 0.25 µg/mL (≈ 0.104 µM) | 4 µg/mL (≈ 1.66 µM) | 8 µg/mL (≈ 3.32 µM) | 0.125 µg/mL (≈ 0.0518 µM) | 1 µg/mL (≈ 0.414 µM)
CN[C@H](C(=O)N[C@H]1CSSC[C@@H](C(=O)N[C@@H](CO)C(N)=O)NC(=O)[C@H](C(C)(C)C)NC(=O)[C@H](CCO)NC(=O)[C@H](Cc2c[nH]c3ccccc23)NC(=O)[C@H](CCO)NC(=O)[C@@H](CCN)NC(=O)[C@H](CCC(=O)N[C@@H](CCN)C(=O)N[C@H](C(=O)N[C@@H](CCN)C(=O)N[C@H]2CCNC(=O)[C@H]([C@@H](C)O)NC(=O)[C@H](CCN)NC(=O)[C@H](CCN)NC(=O)[C@H](CC(C)C)NC(=O)[C@@H](CC(C)C)NC(=O)[C@H](CCN)NC2=O)[C@@H](C)O)NC(=O)[C@H](CCN)NC(=O)[C@H](Cc2ccc(O)cc2)NC1=O)C(C)C [Ex. 51] (I: H-[NMeV]CY[Dab]E[dDab][hSer]W[hSer][Tle]CS-NH2 / II: [Dab]T[Dab][Dab][Dab][dL]L[Dab][Dab]T; disulfide I:2-I:11; amide I:5-II:N; lactam II:4-II:C) | <1% | 0.25 µg/mL (≈ 0.103 µM) | 0.125 µg/mL (≈ 0.0515 µM) | 0.5 µg/mL (≈ 0.206 µM) | 0.5 µg/mL (≈ 0.206 µM) | 1 µg/mL (≈ 0.412 µM) | 0.5 µg/mL (≈ 0.206 µM) | 0.125 µg/mL (≈ 0.0515 µM) | 0.25 µg/mL (≈ 0.103 µM)
CC(=O)N[C@H](C(=O)N[C@H]1CSSC[C@@H](C(=O)N[C@@H](CO)C(=O)O)NC(=O)[C@H](C(C)(C)C)NC(=O)[C@H](CO)NC(=O)[C@H](Cc2c[nH]c3ccccc23)NC(=O)[C@H]([C@@H](C)O)NC(=O)[C@@H](CCN)NC(=O)[C@H](CCC(=O)N[C@@H](CCN)C(=O)N[C@H](C(=O)N[C@@H](CCN)C(=O)N[C@H]2CCNC(=O)[C@H]([C@@H](C)O)NC(=O)[C@H](CCN)NC(=O)[C@H](CCN)NC(=O)[C@H](CC(C)C)NC(=O)[C@@H](CC(C)C)NC(=O)[C@H](CCN)NC2=O)[C@@H](C)O)NC(=O)[C@H](CCN)NC(=O)[C@H](Cc2ccc(O)cc2)NC1=O)C(C)C [Ex. 52] (I: Ac-VCY[Dab]E[dDab]TWS[Tle]CS-OH / II: [Dab]T[Dab][Dab][Dab][dL]L[Dab][Dab]T; disulfide I:2-I:11; amide I:5-II:N; lactam II:4-II:C) | <1% | 0.25 µg/mL (≈ 0.102 µM) | 0.25 µg/mL (≈ 0.102 µM) | 2 µg/mL (≈ 0.819 µM) | 1 µg/mL (≈ 0.41 µM) | 4 µg/mL (≈ 1.64 µM) | 2 µg/mL (≈ 0.819 µM) | 0.25 µg/mL (≈ 0.102 µM) | 2 µg/mL (≈ 0.819 µM)
CC(C)C[C@@H]1NC(=O)[C@@H](CC(C)C)NC(=O)[C@H](CCN)NC(=O)[C@@H](NC(=O)[C@H](CCN)NC(=O)[C@@H](NC(=O)[C@H](CCN)NC(=O)CC[C@@H]2NC(=O)[C@H](CCN)NC(=O)[C@H](Cc3ccc(O)cc3)NC(=O)[C@@H](NC(=O)[C@@H](N)C(C)C)CSSC[C@@H](C(=O)N[C@@H](CO)C(=O)O)NC(=O)[C@H](C(C)(C)C)NC(=O)[C@H](CO)NC(=O)[C@H](Cc3c[nH]c4ccccc34)NC(=O)[C@H]([C@@H](C)O)NC(=O)[C@@H](CCN)NC2=O)[C@@H](C)O)CCNC(=O)[C@H]([C@@H](C)O)NC(=O)[C@H](CCN)NC(=O)[C@H](CCN)NC1=O [Ex. 53] (I: H-VCY[Dab]E[dDab]TWS[Tle]CS-OH / II: [Dab]T[Dab][Dab][Dab][dL]L[Dab][Dab]T; disulfide I:2-I:11; amide I:5-II:N; lactam II:4-II:C) | <1% | 0.125 µg/mL (≈ 0.0521 µM) | 0.125 µg/mL (≈ 0.0521 µM) | 0.5 µg/mL (≈ 0.208 µM) | 0.25 µg/mL (≈ 0.104 µM) | 4 µg/mL (≈ 1.67 µM) | 8 µg/mL (≈ 3.33 µM) | 0.125 µg/mL (≈ 0.0521 µM) | 0.5 µg/mL (≈ 0.208 µM)
CC(C)C[C@@H]1NC(=O)[C@@H](CC(C)C)NC(=O)[C@H](CCN)NC(=O)[C@@H](NC(=O)[C@H](CCN)NC(=O)[C@@H](NC(=O)[C@H](CCN)NC(=O)CC[C@@H]2NC(=O)[C@H](CCN)NC(=O)[C@H](Cc3ccc(O)cc3)NC(=O)[C@@H](NC(=O)[C@@H](N)C(C)C)C(C)(C)SSC[C@@H](C(=O)N[C@@H](CO)C(=O)O)NC(=O)[C@H](C(C)(C)C)NC(=O)[C@H](CO)NC(=O)[C@H](Cc3c[nH]c4ccccc34)NC(=O)[C@H]([C@@H](C)O)NC(=O)[C@@H](CCN)NC2=O)[C@@H](C)O)CCNC(=O)[C@H]([C@@H](C)O)NC(=O)[C@H](CCN)NC(=O)[C@H](CCN)NC1=O [Ex. 54] (I: H-V[Pen]Y[Dab]E[dDab]TWS[Tle]CS-OH / II: [Dab]T[Dab][Dab][Dab][dL]L[Dab][Dab]T; disulfide I:2-I:11; amide I:5-II:N; lactam II:4-II:C) | <1% | 0.0625 µg/mL (≈ 0.0257 µM) | 0.25 µg/mL (≈ 0.103 µM) | 0.5 µg/mL (≈ 0.206 µM) | 0.25 µg/mL (≈ 0.103 µM) | 4 µg/mL (≈ 1.65 µM) | 4 µg/mL (≈ 1.65 µM) | 0.25 µg/mL (≈ 0.103 µM) | 0.5 µg/mL (≈ 0.206 µM)
